Experimental data taken from patent US10723711B2, “1,1,1-trifluoro-3-hydroxypropan-2-yl carbamate derivatives and 1,1,1-trifluoro-4-hydroxybutan-2-yl carbamate derivatives as MAGL inhibitors” (PFIZER INC., priority 2015, dated 2020).
Like-named read-outs stand apart in the source and are kept apart here.

Experiments:
Type in all cases: biochemical
[1] = biological target: T1, human recombinant Monoacylglycerol Lipase (Homo sapiens, UniProt Q99685); test: MAGL inhibition enzymatic assay, fluorogenic substrate 7-HCA, IC50 at T=0 min or after 30 minute incubation (T=30 min); settings: geometric mean of 2-4 determinations unless otherwise indicated
T1 sequence (Q99685 1-303): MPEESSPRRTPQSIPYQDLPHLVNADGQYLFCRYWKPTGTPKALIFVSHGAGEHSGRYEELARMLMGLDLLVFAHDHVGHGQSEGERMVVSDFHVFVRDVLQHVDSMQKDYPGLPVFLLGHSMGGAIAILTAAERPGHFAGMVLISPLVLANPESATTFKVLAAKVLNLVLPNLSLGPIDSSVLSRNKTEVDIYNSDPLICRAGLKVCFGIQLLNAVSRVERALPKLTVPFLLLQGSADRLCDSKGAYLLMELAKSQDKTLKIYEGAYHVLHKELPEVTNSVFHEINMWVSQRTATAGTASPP
Method: An equal volume of 7-HCA in assay buffer with 10% DMSO was added either immediately (T=0 min) or after a 30 minute incubation (T=30 min) to initiate the reaction. […] After these dilutions, the final concentration of the test compound ranged from 3 μM to 0.03 nM. […] IC50 values were generated based on a four parameter fit model using ABASE software from IDBS.

[2] = biological target: T1, human recombinant Monoacylglycerol Lipase; test: MAGL inactivation, enzyme progress curves, kinact/KI; settings: from enzyme progress curves, T = 0 min protocol; geometric mean of 2-4 determinations unless otherwise indicated
Outline: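 Human recombinant MAGL ([…]) with compound, 7-HCA substrate (final 5 μM) added immediately (T=0 min), in pH 7.4 HEPES buffer with 0.1% Triton X-100 and 25% glycerin. Fluorescence (Ex/Em 340/465) was read every minute over 60 min, giving progress curves at decreasing compound concentrations (final 3 μM to 0.03 nM).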

human recombinant FAAH = biological target: T2, human recombinant FAAH (Homo sapiens, UniProt O00519); test: FAAH inhibition enzymatic assay, fluorescent substrate Arachidonoyl-AMC, 30 minute incubation; settings: T = 30 min (30 minute incubation); geometric mean of 2-4 determinations unless otherwise indicated
T2 construct: purchased Cayman 10010183
T2 sequence (O00519 1-579): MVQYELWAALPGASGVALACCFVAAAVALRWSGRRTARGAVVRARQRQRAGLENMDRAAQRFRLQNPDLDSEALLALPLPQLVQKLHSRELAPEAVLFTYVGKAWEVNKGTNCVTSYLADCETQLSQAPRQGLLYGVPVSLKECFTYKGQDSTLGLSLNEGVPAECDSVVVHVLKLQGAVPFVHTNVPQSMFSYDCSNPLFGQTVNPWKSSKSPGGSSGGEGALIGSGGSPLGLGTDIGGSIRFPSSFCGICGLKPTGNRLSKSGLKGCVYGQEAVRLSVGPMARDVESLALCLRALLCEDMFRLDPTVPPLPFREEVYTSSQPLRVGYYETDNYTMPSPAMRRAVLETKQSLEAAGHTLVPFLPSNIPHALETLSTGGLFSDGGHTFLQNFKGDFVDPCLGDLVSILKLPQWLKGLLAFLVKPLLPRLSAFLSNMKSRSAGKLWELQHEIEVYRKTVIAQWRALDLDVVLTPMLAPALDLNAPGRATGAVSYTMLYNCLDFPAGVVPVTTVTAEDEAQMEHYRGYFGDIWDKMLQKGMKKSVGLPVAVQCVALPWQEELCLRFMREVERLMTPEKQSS

[3] = T = 0 min (substrate added immediately), read-out: MAGL (T = 0 min) IC50
[4] = T = 30 min (30 minute incubation), read-out: MAGL (T = 30 min) IC50

Compound	IC50 [1, 3]	IC50 [1, 4]	MAGL kinact/KI [2]	IC50 (human recombinant FAAH)
O=C(O[C@H](CO)C(F)(F)F)N1CCC2(CC1)CCN(C(=O)c1ccccc1F)C2 [Example 98, (2R)-1,1,1-Trifluoro-3-hydroxypropan-2-yl 2-(2-fluorobenzoyl)-2,8-diazaspiro[4.5]decane-8-carboxylate]	0.071 µM	0.007 µM	4933 1/s per M	> 30 µM
O=C(O[C@H](CO)C(F)(F)F)N1CCC2(CC1)CCN(S(=O)(=O)c1ccccc1)C2 [Example 105, (2R)-1,1,1-Trifluoro-3-hydroxypropan-2-yl 2-(phenylsulfonyl)-2,8-diazaspiro[4.5]decane-8-carboxylate]	0.022 µM	0.002 µM	59993 1/s per M	9.76 µM
CN([C@H]1COC2(CCN(C(=O)O[C@H](CO)C(F)(F)F)CC2)C1)S(=O)(=O)CC1CC1 [Example 106, (2R)-1,1,1-Trifluoro-3-hydroxypropan-2-yl (3R)-3-{[(cyclopropylmethyl)sulfonyl](methyl)amino}-1-oxa-8-azaspiro[4.5]decane-8-carboxylate]	0.238 µM	0.02 µM	2856 1/s per M	> 30 µM
CC(C)N([C@H]1COC2(CCN(C(=O)O[C@H](CO)C(F)(F)F)CC2)C1)S(=O)(=O)c1ccccc1 [Example 107]	0.01 µM	0.001 µM	127771 1/s per M	> 30 µM
O=C(O[C@H](CO)C(F)(F)F)N1CCC2(CC1)CCN(C(=O)C1CCCC1)C2 [Example 124]	0.092 µM	0.01 µM	6720 1/s per M	> 30 µM
O=C(O[C@H](CO)C(F)(F)F)N1CCC2(CC1)CCN(C(=O)c1nccs1)C2 [Example 125]	0.065 µM	0.007 µM	5464 1/s per M	> 30 µM
O=C(O[C@H](CO)C(F)(F)F)N1CCC2(CC1)CCN(C(=O)c1ccccc1)C2 [Example 126]	0.112 µM	0.012 µM	3723 1/s per M	> 30 µM
O=C(O[C@H](CO)C(F)(F)F)N1CCC2(CC1)CCN(C(=O)C1CCC(F)(F)CC1)C2 [Example 127]	0.163 µM	0.017 µM	2067 1/s per M	> 30 µM
O=C(O[C@H](CO)C(F)(F)F)N1CCC2(CC1)CCN(C(=O)N1CCCC1)C2 [Example 133]	0.174 µM	0.02 µM	3614 1/s per M	4.75 µM
O=C(O[C@H](CO)C(F)(F)F)N1CCC2(CC1)CCN(S(=O)(=O)c1nccs1)C2 [Example 134]	0.096 µM	0.007 µM	9930 1/s per M	> 23.4 µM
O=C(O[C@H](CO)C(F)(F)F)N1CCC2(CC1)CCN(S(=O)(=O)c1cccnc1)C2 [Example 135]	0.168 µM	0.013 µM	4723 1/s per M	> 30 µM
CN([C@H]1COC2(CCN(C(=O)O[C@H](CO)C(F)(F)F)CC2)C1)S(=O)(=O)c1nccs1 [Example 136]	0.052 µM	0.005 µM	15516 1/s per M	> 30 µM
CN([C@H]1COC2(CCN(C(=O)O[C@H](CO)C(F)(F)F)CC2)C1)S(=O)(=O)CC(F)(F)F [Example 137]	0.126 µM	0.011 µM	7582 1/s per M	> 30 µM
CN([C@H]1COC2(CCN(C(=O)O[C@H](CO)C(F)(F)F)CC2)C1)S(=O)(=O)c1cnn(C)c1 [Example 138]	0.185 µM	0.015 µM	2154 1/s per M	16.3 µM
CC(C)CS(=O)(=O)N(C)[C@H]1COC2(CCN(C(=O)O[C@H](CO)C(F)(F)F)CC2)C1 [Example 139]	0.153 µM	0.015 µM	3058 1/s per M	> 30 µM
CN([C@H]1COC2(CCN(C(=O)O[C@H](CO)C(F)(F)F)CC2)C1)S(=O)(=O)CC1CCC1 [Example 140]	0.094 µM	0.009 µM	4595 1/s per M	> 30 µM
CN(C(=O)c1cccc(F)c1)[C@H]1COC2(CCN(C(=O)O[C@H](CO)C(F)(F)F)CC2)C1 [Example 141]	0.077 µM	0.007 µM	3519 1/s per M	> 30 µM
CN(C(=O)C1CCC1)[C@H]1COC2(CCN(C(=O)O[C@H](CO)C(F)(F)F)CC2)C1 [Example 142]	0.084 µM	0.009 µM	3961 1/s per M	> 30 µM
CN(C(=O)CC1CCC1)[C@H]1COC2(CCN(C(=O)O[C@H](CO)C(F)(F)F)CC2)C1 [Example 143]	0.096 µM	0.01 µM	2585 1/s per M	> 30 µM
CC(C)CC(=O)N(C)[C@H]1COC2(CCN(C(=O)O[C@H](CO)C(F)(F)F)CC2)C1 [Example 144]	0.105 µM	0.01 µM	2802 1/s per M	> 30 µM
CN(C(=O)CC1CC1)[C@H]1COC2(CCN(C(=O)O[C@H](CO)C(F)(F)F)CC2)C1 [Example 145]	0.198 µM	0.019 µM	1476 1/s per M	> 30 µM
